Series [1] has as its target RAF proto-oncogene serine/threonine-protein kinase (Homo sapiens, UniProt P04049). The series can be described thus: Inhibition of c-Raf assessed as phosphorylation of MEK1/2 by ELISA.
In series [2] the target is T1, Serine/threonine-protein kinase B-raf (Homo sapiens, UniProt P15056, V600E). The series can be described thus: Inhibition of B-Raf V599E mutant assessed as phosphorylation of MEK1/2 by ELISA.
Series [3] addresses T1, Serine/threonine-protein kinase B-raf. Briefly: Inhibition of BRAF V600E mutant-mediated ERK phosphorylation in human SKMEL-28 cells by immunoblotting method. In kind it is cell-based, MEL-28. (In general: A western blot detects proteins with antibodies after separation by electrophoresis.)
Series [4] is described as follows: Clearance in mouse at 20 mg/kg, po administered as single dose. In kind it is ADME, organism-based. Also noted: dose 20 mg/kg, route oral. As to conditions: in vivo.
The subject of series [5] is Mus musculus. The series can be described thus: Volume of distribution in mouse at 20 mg/kg, po administered as single dose. Also noted: dose 20 mg/kg, route oral. In kind it is ADME, organism-based. Particulars: in vivo.
Series [6] is described as follows: Half life in mouse at 20 mg/kg, po administered as single dose. In kind it is ADME, organism-based. Also noted: dose 20 mg/kg, route oral. Particulars: in vivo.
A short description of series [7]: Oral bioavailability in mouse at 20 mg/kg administered as single dose. The series is classed as ADME, organism-based. Particulars: in vivo.
Series [8] has as its target Macrophage colony-stimulating factor 1 receptor (Homo sapiens) (UniProt P07333). The series can be described thus: Inhibition of CSFR1.
The target in series [9] is Receptor-type tyrosine-protein kinase FLT3 (Homo sapiens) (UniProt P36888). The series can be described thus: Inhibition of Flt3.
Chain of Receptor-type tyrosine-protein kinase FLT3 (Homo sapiens) (P36888 whole entry): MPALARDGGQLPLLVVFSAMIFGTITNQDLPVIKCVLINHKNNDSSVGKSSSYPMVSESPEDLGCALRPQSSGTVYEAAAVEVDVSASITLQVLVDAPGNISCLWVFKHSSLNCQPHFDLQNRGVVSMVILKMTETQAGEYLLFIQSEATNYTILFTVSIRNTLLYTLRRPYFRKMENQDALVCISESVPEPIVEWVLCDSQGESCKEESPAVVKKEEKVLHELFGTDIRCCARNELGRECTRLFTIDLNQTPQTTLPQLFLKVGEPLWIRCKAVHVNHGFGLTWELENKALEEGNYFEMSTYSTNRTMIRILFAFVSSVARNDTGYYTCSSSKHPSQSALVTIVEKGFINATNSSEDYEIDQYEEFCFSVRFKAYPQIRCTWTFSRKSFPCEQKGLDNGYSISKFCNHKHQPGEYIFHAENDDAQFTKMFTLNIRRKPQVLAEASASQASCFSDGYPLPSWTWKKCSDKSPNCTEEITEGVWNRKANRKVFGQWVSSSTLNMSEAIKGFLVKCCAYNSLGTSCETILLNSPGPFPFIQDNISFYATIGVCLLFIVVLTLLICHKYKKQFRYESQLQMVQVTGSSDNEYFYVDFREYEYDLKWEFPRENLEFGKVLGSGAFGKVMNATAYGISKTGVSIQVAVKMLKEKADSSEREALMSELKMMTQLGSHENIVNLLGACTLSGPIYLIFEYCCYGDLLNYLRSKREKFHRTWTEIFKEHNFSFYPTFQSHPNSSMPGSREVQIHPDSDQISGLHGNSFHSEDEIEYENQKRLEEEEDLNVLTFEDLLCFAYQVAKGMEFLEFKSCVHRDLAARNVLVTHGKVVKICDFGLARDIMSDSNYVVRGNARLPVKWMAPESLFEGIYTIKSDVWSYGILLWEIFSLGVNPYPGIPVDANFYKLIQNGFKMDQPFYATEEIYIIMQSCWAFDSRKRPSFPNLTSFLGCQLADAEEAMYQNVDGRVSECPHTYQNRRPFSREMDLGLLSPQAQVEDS
In series [10] the target is Vascular endothelial growth factor receptor 2 (Homo sapiens) (UniProt P35968). Briefly: Inhibition of KDR.
Series [11] concerns the target Tyrosine-protein kinase ABL1 (Homo sapiens) (UniProt P00519). Briefly: Inhibition of cABL.
Series [12] addresses Proto-oncogene tyrosine-protein kinase receptor Ret (Homo sapiens) (UniProt P07949). The series can be described thus: Inhibition of Ret.

Calls of active or inactive are those of the source.

Broadly, the IC50 is the concentration that inhibits the measured activity by half. In general, EC50 refers to the concentration giving half of the maximal effect. Lower therefore signals greater potency. For orientation: CL/F means the apparent clearance, not corrected for the fraction that reaches the circulation. For orientation: half-life means the time needed for the level to fall by half in the phase considered. Higher therefore signals slow decline. For orientation: bioavailability means the share of a dose that reaches the circulation, judged against a reference dose that is usually intravenous. A higher bioavailability goes with good availability.

T1 sequence (P15056 2-766 V600E limits assumed): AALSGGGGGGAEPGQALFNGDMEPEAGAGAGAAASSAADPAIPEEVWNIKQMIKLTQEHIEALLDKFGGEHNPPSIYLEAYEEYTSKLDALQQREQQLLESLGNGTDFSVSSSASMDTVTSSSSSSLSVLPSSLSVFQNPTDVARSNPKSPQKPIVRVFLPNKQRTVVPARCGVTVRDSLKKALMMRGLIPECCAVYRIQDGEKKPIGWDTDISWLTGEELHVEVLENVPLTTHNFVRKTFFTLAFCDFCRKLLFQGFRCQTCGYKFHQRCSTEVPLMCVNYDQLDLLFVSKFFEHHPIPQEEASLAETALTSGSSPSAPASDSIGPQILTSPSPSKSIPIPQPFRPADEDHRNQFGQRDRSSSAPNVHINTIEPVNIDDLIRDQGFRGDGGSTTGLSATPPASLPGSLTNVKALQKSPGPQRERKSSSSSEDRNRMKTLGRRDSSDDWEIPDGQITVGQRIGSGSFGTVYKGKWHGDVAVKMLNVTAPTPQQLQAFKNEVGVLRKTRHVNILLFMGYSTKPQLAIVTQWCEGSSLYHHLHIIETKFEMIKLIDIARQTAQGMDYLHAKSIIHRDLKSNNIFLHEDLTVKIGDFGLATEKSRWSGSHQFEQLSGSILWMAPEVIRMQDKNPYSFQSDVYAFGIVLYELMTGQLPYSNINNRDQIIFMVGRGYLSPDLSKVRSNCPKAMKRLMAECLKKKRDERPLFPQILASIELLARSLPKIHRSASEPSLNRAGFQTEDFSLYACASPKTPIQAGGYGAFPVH
Chain of RAF proto-oncogene serine/threonine-protein kinase (P04049 whole entry): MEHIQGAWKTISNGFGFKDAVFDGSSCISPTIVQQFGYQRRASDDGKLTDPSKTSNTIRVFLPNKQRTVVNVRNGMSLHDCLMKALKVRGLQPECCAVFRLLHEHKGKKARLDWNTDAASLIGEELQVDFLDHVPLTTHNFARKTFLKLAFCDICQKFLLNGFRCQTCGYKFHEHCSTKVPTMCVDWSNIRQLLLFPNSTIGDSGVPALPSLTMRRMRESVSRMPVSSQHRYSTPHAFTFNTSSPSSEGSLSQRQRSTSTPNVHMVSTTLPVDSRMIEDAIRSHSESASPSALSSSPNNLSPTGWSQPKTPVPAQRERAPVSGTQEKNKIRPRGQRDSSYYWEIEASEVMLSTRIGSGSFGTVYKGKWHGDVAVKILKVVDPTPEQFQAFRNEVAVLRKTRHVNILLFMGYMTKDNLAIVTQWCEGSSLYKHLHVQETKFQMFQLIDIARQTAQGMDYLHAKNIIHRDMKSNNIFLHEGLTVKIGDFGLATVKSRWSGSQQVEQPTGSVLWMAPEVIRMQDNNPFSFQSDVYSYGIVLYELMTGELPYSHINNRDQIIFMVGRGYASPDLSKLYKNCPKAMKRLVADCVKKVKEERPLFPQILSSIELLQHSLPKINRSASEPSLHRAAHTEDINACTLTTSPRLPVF
Chain of Macrophage colony-stimulating factor 1 receptor (Homo sapiens) (P07333 whole entry): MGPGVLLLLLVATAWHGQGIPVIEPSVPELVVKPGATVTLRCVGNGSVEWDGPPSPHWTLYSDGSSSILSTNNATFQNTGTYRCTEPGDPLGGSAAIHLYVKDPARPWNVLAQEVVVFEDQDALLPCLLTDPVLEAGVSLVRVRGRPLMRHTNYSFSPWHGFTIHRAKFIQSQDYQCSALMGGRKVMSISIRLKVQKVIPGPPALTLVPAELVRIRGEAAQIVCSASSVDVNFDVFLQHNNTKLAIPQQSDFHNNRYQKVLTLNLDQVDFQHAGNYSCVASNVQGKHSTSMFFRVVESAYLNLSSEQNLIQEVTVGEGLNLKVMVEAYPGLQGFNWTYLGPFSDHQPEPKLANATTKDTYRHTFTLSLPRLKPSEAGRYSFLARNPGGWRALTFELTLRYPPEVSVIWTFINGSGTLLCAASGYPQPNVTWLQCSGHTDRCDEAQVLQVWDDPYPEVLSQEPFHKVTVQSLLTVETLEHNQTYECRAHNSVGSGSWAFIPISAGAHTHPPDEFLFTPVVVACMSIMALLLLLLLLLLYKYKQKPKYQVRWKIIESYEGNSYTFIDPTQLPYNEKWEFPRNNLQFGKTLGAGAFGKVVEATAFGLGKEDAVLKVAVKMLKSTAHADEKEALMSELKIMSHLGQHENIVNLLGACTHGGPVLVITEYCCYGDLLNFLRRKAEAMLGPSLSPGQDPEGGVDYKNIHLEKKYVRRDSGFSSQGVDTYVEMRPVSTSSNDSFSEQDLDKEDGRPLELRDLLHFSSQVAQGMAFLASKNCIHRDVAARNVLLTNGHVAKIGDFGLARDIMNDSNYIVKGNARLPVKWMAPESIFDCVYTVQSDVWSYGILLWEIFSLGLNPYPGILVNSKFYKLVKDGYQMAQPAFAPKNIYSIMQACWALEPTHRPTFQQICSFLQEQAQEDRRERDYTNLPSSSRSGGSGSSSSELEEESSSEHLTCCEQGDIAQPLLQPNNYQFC
Chain of Proto-oncogene tyrosine-protein kinase receptor Ret (Homo sapiens) (P07949 whole entry): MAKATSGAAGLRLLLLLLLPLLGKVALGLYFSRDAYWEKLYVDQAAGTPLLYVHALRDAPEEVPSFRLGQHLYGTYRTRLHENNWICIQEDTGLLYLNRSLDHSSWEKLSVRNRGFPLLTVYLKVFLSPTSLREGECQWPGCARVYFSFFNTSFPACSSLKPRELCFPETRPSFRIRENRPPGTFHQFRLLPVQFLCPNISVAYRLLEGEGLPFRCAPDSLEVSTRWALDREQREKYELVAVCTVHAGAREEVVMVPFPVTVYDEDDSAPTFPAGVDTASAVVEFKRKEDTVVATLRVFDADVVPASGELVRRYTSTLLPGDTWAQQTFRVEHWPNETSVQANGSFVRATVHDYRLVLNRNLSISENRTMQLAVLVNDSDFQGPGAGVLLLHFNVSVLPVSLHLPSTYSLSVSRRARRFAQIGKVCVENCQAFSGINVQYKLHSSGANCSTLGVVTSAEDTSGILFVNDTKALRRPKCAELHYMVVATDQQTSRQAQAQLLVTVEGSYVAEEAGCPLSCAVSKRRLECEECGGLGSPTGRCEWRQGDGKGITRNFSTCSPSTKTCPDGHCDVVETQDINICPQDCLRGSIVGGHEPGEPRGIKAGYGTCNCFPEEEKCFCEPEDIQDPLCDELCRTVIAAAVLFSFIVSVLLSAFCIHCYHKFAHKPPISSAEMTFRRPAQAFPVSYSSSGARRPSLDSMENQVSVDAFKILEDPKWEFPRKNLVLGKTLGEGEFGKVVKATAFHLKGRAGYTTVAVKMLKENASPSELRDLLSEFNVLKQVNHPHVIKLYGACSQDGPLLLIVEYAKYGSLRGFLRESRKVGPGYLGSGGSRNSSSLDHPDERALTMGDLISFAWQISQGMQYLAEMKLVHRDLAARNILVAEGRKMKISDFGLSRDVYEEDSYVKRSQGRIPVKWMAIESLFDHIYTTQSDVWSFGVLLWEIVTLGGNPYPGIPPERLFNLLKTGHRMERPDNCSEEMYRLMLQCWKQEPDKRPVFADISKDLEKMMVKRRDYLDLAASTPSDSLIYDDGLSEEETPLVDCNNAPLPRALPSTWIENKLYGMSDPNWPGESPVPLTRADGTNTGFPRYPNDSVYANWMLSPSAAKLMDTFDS

Consider `CNC(=O)c1cc(Oc2ccc3oc(Nc4ccc(N(C)C)cc4)nc3c2)ccn1`, for which the IC50 in series [1] stood at 0.012 µM; in [2], 0.13 µM.
For `CC(C)c1cccc(Nc2nc3cc(Oc4ccnc(C(=O)NCCN5CCOCC5)c4)ccc3o2)c1` the same measures were 0.14 µM and 0.2 µM.
Take `CNC(=O)c1cc(Oc2ccc3oc(Nc4ccc(Br)cc4)nc3c2)ccn1`: the IC50 amounted to 0.003 µM in [1] and 0.025 µM in series [2]. In [3], the midpoint of the response, the EC50, lay at 10 µM.
As to `CC(C)c1cccc(Nc2nc3cc(Oc4ccnc(C(N)=O)c4)ccc3o2)c1`, the IC50 in series [1] and in [2] was 0.004 µM throughout. In series [3], this compound registered an EC50 of 3.7 µM.
On to `CCN1CCN(c2ccc(Nc3nc4cc(Oc5ccnc(C(=O)NC)c5)ccc4o3)cc2)CC1`, for which the values for the IC50 in [1] and in series [2] were 7.3 µM and 17 µM, respectively.
For `CCCCc1ccc(Nc2nc3cc(Oc4ccnc(C(=O)NC)c4)ccc3s2)cc1`, in that order: 0.009 µM and 0.065 µM.
Regarding `CNC(=O)c1cc(Oc2ccc3sc(Nc4ccc(C(C)C)cc4)nc3c2)ccn1`, the IC50 in [1] is 0.003 µM; in series [2], 0.019 µM. The compound further showed a half-maximal effective concentration (EC50) in [3] of 3.2 µM.
`CCc1ccc(Nc2nc3cc(Oc4ccnc(C(=O)NC)c4)ccc3o2)cc1`: the IC50 was determined as 0.001 µM in series [1] and 0.005 µM in [2]. Further, in [3], the EC50 amounted to 7 µM. The CL/F in [4] is 0.93 mL/min/kg. In series [5], this compound showed a Vd of 0.082 L/kg. Moreover, the half-life in series [6] came out at 32 min. The compound further came in with a bioavailability in series [7] of 33%.
With `CC(C)(C)c1cccc(Nc2nc3cc(Oc4ccnc(C(N)=O)c4)ccc3s2)c1`, the IC50 in series [1] was 0.001 µM; in [2], 0.002 µM. The same compound registered an EC50 in [3] of 2.9 µM.
For `CNC(=O)c1cc(Oc2ccc3sc(Nc4ccc(Br)cc4)nc3c2)ccn1`, in that order: 0.002 µM, 0.007 µM and over 10 µM.
Consider `CNC(=O)c1cc(Oc2ccc3c(c2)nc(Nc2cccc(C(C)(C)C)c2)n3C)ccn1`, for which the IC50 in [2] turned out to be 0.12 µM. Moreover, in series [3], the EC50 was 0.28 µM.
Turning to `CNC(=O)c1cc(Oc2ccc3sc(Nc4ccc(Cl)cc4)nc3c2)ccn1`, the figures for the IC50 in series [1] and in series [2] were 0.004 µM and 0.015 µM, respectively.
For `CCCCc1ccc(Nc2nc3cc(Oc4ccnc(C(=O)NC)c4)ccc3o2)cc1`, in that order: 0.002 µM and 0.011 µM.
For `CNC(=O)c1cc(Oc2ccc3sc(Nc4ccc(OC(F)(F)F)cc4)nc3c2)ccn1`, in that order: 0.004 µM and 0.018 µM.
As for `CNC(=O)c1cc(Oc2ccc3oc(Nc4cccc(C(F)(F)F)c4)nc3c2)ccn1`, the IC50 in series [1] is 0.027 µM; in series [2], 0.11 µM.
Consider `CNC(=O)c1cc(Oc2ccc3oc(Nc4cccc(C(C)(C)C)c4)nc3c2)ccn1`, for which the IC50 came out at 0.001 µM in series [1] and 0.006 µM in series [2]. The compound also yielded a concentration for a half-maximal effect (EC50) in series [3] of 1 µM.
Turning to `CNC(=O)c1cc(Oc2ccc3oc(Nc4ccc(Oc5ccccc5)cc4)nc3c2)ccn1`, the IC50 worked out at 0.053 µM in series [1] and 0.68 µM in [2].
For `CNC(=O)c1cc(Oc2ccc3oc(Nc4ccccc4Cl)nc3c2)ccn1` the same measures were 0.12 µM and 0.26 µM.
`CCc1ccccc1Nc1nc2cc(Oc3ccnc(C(=O)NC)c3)ccc2o1`: the values for the IC50 in [1] and in series [2] were 0.11 µM and 0.34 µM, respectively.
For the compound `CNC(=O)c1cc(Oc2ccc3sc(Nc4ccc(C)cc4)nc3c2)ccn1`, the IC50 in series [1] is 0.007 µM; in series [2], 0.026 µM. For the same compound, the CL/F in series [4] is 14.1 mL/min/kg. Also, the Vd in [5] was 1.042 L/kg. Moreover, the half-life in series [6] amounted to 80 min. The bioavailability in series [7] is 90%.
Take `O=C(NCCN1CCOCC1)c1cc(Oc2ccc3sc(Nc4ccc(Br)cc4)nc3c2)ccn1`: the IC50 came out at 0.041 µM in [1] and 0.24 µM in series [2]. In series [3], this compound displayed an EC50 of over 10 µM.
Regarding `CNC(=O)c1cc(Oc2ccc3oc(Nc4ccccc4F)nc3c2)ccn1`, the figures for the IC50 in series [1] and in series [2] were 0.2 µM and 0.58 µM, respectively.
As for `CNC(=O)c1cc(Oc2ccc3sc(Nc4cccc(C(C)(C)C)c4)nc3c2)ccn1`, the inhibition entry in [8], in [9], in series [10], in [11] and in series [12] was “Active” in each case. Also, the IC50 in [1] came out at 0.001 µM; in series [2], 0.004 µM. In [3], this compound yielded an EC50 of 2.1 µM.
Turning to `CNC(=O)c1cc(Oc2ccc3oc(Nc4ccc(OC(F)(F)F)cc4)nc3c2)ccn1`, the IC50 in [1] is 0.002 µM; in series [2], 0.012 µM.
As to `CNC(=O)c1cc(Oc2ccc3oc(Nc4ccc(C(C)C)cc4)nc3c2)ccn1`, the figures for the IC50 in series [1] and in series [2] were 0.001 µM and 0.006 µM, respectively.
For `CNC(=O)c1cc(Oc2ccc3oc(Nc4ccc(Cl)cc4)nc3c2)ccn1` the same measures were 0.019 µM and 0.021 µM.
For `CNC(=O)c1cc(Oc2ccc3oc(Nc4cccc(C(C)C)c4)nc3c2)ccn1`, the inhibition entry in series [8], in series [9], in series [10], in [11] and in series [12] was “Active” each time. The 50% inhibitory concentration (IC50) in series [1] turned out to be 0.003 µM. The compound also registered an EC50 in series [3] of 1 µM.

For the origin of these results see ChEMBL document CHEMBL1777722, “Design and synthesis of 5,6-fused heterocyclic amides as Raf kinase inhibitors” (Bioorg Med Chem Lett, 2011).
